The values below come from patent US10323026B2, “Heterocyclic compound” (Takeda Pharmaceutical Company Limited, priority 2016, dated 2019).

The target in the assay is T1, His-hMAGL (recombinant polyhistidine tagged human MAGL protein) (Homo sapiens, UniProt Q99685).
T1 construct: polyhistidine (His) (N); made in house; host or cells: E. coli BL21(DE3)
T1 sequence (Q99685 1-303): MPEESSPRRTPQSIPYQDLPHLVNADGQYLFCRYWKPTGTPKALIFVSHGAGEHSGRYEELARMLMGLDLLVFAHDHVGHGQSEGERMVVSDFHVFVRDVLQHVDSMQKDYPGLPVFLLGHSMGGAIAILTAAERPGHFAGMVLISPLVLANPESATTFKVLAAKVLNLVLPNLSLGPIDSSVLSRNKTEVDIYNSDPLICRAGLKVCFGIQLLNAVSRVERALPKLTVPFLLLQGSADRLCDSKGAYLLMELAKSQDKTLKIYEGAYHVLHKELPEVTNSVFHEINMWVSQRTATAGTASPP
Kind of assay: Measurement of MAGL inhibitory activity (RapidFire-mass spectrometry of arachidonic acid produced from 2-arachidonylglycerol). Format: biochemical. The note with it: test compound 10 μM, His-hMAGL, substrate 2-arachidonylglycerol, 60 min preincubation; for inhibition at 10 µM: read-out: % inhibition (10 μM). As for the experimental part: Furthermore, acetonitrile (50 μL) containing 3 μM arachidonic acid-d8 (Cayman Chemical Company) was added and the mixture was stirred.
The amount of arachidonic acid in the obtained enzyme reaction mixture was calculated by measuring by RapidFire-mass spectrometry and correcting by the amount of arachidonic acid-d8. High Throughput online solid phase extraction was performed using RapidFire 300™ system (Agilent Technologies, Inc.). Samples were loaded on SPE C4 cartridge (Agilent Technologies, Inc.) and desalted with 0.2 (v/v) % acetic acid (Wako Pure Chemical Industries, Ltd.) in ultrapure water/acetonitrile (70/30, v/v) at a flow rate of 1.5 mL/min, eluted at a flow rate of 0.5 mL/min with 0.2(v/v) % acetic acid dissolved in acetonitrile/ultrapure water (90/10, v/v), and injected into the mass spectrometry part. The injection needle was washed with ultrapure water (500 millisecond) and acetonitrile (500 millisecond) to minimize carry-over. […] The RapidFire300 system was controlled by RapidFire UI software version 3.6 (Agilent Technologies, Inc.).
The mass spectrometry of the resultant product was performed using API4000™ triple quadrupole mass spectrometer (AB SCIEX) equipped with an electrospray ion source (TurboIon Spray™) in a negative selected reaction monitoring (SRM) mode. The conditions of SRM are shown below. The parameters of the instrument were optimized as follows: capillary temperature 600° C., ion spray voltage −4.5 kV, collision gas 8, curtain gas 15 psi, ion source gas 1 60 psi, ion source gas 2 60 psi. The mass spectrometer was controlled by Analyst™ software version 1.5.1 (AB SCIEX). The peak area integration was analyzed using RapidFire integrator software version 3.6 (Agilent Technologies, Inc.).
MAGL inhibitory rate (%) was calculated according to the following calculation formula. (1-(arachidonic acid production amount of test compound addition group−arachidonic acid production amount of enzyme-free group)÷(arachidonic acid production amount of test compound-free group−arachidonic acid production amount of enzyme-free group))×100

For `Cc1cc(F)ccc1OC(C)C1CCN(C(=O)[C@H]2C[C@]3(COC(=O)N3)C2)CC1` (stereo partly shown) [Example 33, (2s,4s)-2-((4-(1-(4-fluoro-2-methylphenoxy)ethyl)piperidin-1-yl)carbonyl)-7-oxa-5-azaspiro[3.4]octan-6-one], the “% inhibition (10 μM)” value (10 µM) is 101%.

As for `Cc1cc(F)ccc1OC(C)C1CCN(C(=O)[C@H]2C[C@]3(COC(=O)N3)C2)CC1` (stereo partly shown) [Example 34, (2s,4s)-2-((4-(1-(4-fluoro-2-methylphenoxy)ethyl)piperidin-1-yl)carbonyl)-7-oxa-5-azaspiro[3.4]octan-6-one], for the setting “10 µM”, the “% inhibition (10 μM)” value turned out to be 101%.

Turning to `CC(Oc1ccc(C(F)(F)F)cc1F)C1CCN(C(=O)[C@H]2C[C@]3(COC(=O)N3)C2)CC1` (stereo partly shown) [Example 35, (2s,4s)-2-((4-(1-(2-fluoro-4-(trifluororoethyl)phenoxy)ethyl)piperidin-1-yl)carbonyl)-7-oxa-5-azaspiro[3.4]octan-6-one], the inhibition at 10 µM amounted to 101%.

With `CC(Oc1c(F)ccc(F)c1F)C1CCN(C(=O)[C@H]2C[C@]3(COC(=O)N3)C2)CC1` (stereo partly shown) [Example 36, (2s,4s)-2-((4-(1-(2,3,6-trifluorophenoxy)ethyl)piperidin-1-yl)carbonyl)-7-oxa-5-azaspiro[3.4]octan-6-one], the inhibition at 10 µM was 101%.

As for `CC(Oc1cc(F)c(F)cc1F)C1CCN(C(=O)[C@H]2C[C@]3(COC(=O)N3)C2)CC1` (stereo partly shown) [Example 40, (2s,4s)-2-((4-(1-(2,4,5-trifluorophenoxy)ethyl)piperidin-1-yl)carbonyl)-7-oxa-5-azaspiro[3.4]octan-6-one], the inhibition at 10 µM was 101%.

With `O=C1N[C@]2(CO1)C[C@H](C(=O)N1CC(COc3cc(Br)c(C(F)(F)F)cc3F)C1)C2` [Example 41, (2s,4s)-2-((3-((5-bromo-2-fluoro-4-(trifluoromethyl)phenoxy)methyl)azetidin-1-yl)carbonyl)-7-oxa-5-azaspiro[3.4]octan-6-one], the inhibition at 10 µM was determined as 101%.

`CCC1(COc2ccc(F)cc2Cl)CCN(C(=O)[C@H]2C[C@]3(COC(=O)N3)C2)CC1` [Example 44, (2s,4s)-2-((4-((2-chloro-4-fluorophenoxy)methyl)-4-ethylpiperidin-1-yl)carbonyl)-7-oxa-5-azaspiro[3.4]octan-6-one]: the inhibition at 10 µM worked out at 101%.

For the molecule `Cc1ccc(OC(C)C2CCN(C(=O)[C@H]3C[C@]4(COC(=O)N4)C3)CC2)c(F)c1` (stereo partly shown) [Example 45, (2s,4s)-2-((4-(1-(2-fluoro-4-methylphenoxy)ethyl)piperidin-1-yl)carbonyl)-7-oxa-5-azaspiro[3.4]octan-6-one], the “% inhibition (10 μM)” value is 100%.

Turning to `Cc1ccc(OC(C)C2CCN(C(=O)[C@H]3C[C@]4(COC(=O)N4)C3)CC2)c(F)c1` (stereo partly shown) [Example 46, (2s,4s)-2-((4-(1-(2-fluoro-4-methylphenoxy)ethyl)piperidin-1-yl)carbonyl)-7-oxa-5-azaspiro[3.4]octan-6-one], the “% inhibition (10 μM)” value stood at 100%.

Consider `CC(Oc1ccc(C2CC2)cc1F)C1CCN(C(=O)[C@H]2C[C@]3(COC(=O)N3)C2)CC1` (stereo partly shown) [Example 47, (2s,4s)-2-((4-(1-(4-cychopropyl-2-fluorophenoxy)ethyl)piperidin-1-yl)carbonyl)-7-oxa-5-azaspiro[3.4]octan-6-one], for which the inhibition at 10 µM was found to be 100%.

With `O=C1N[C@]2(CO1)C[C@H](C(=O)N1CCC(COc3ccc(F)cc3Cl)(C(F)(F)F)CC1)C2` [Example 48, (2s,4s)-2-((4-((2-chloro-4-fluorophenoxy)methyl)-4-(trifluoromethyl)piperidin-1-yl)carbonyl)-7-oxa-5-azaspiro[3.4]octan-6-one], the inhibition at 10 µM stood at 100%.

With `O=C1N[C@]2(CO1)C[C@H](C(=O)N1CCC(COc3ccc(N4CC(F)C4)cc3Cl)CC1)C2` [Example 49, (2s,4s)-2-((4-((2-chroro-4-(3-fluoroazetidin-1-yl)phenoxy)methyl)piperidin-1-yl)carbonyl)-7-oxa-5-azaspiro[3.4]octan-6-one], the inhibition at 10 µM was determined as 101%.

Consider `O=C1N[C@]2(CO1)C[C@H](C(=O)N1CCC(C(c3ccccc3)c3ccccc3)CC1)C2` [Example 50, (2s,4s)-2-((4-(diphenylmethyl)piperidin-1-yl)carbonyl)-7-oxa-5-azaspiro[3.4]octan-6-one], for which the inhibition at 10 µM is 101%.

For `CC(c1ccccc1)(c1ccccc1)C1CCN(C(=O)[C@H]2C[C@]3(COC(=O)N3)C2)CC1` [Example 51, (2s,4s)-2-((4-(1,1-diphenylethyl)piperidin-1-yl)carbonyl)-7-oxa-5-azaspiro[3.4]octan-6-one], the inhibition at 10 µM came out at 101%.

For the molecule `CC1(C(F)(F)c2ccc(F)cc2Cl)CCN(C(=O)[C@H]2C[C@]3(COC(=O)N3)C2)CC1` [Example 52, (2s,4s)-2-((4-((2-chloro-4-fluorophenyl)(difluoro)methyl)-4-methylpiperidin-1-yl)carbonyl)-7-oxa-5-azaspiro[3.4]octan-6-one], the inhibition at 10 µM was 100%.

For the molecule `CC1(C2CCN(C(=O)[C@H]3C[C@]4(COC(=O)N4)C3)CC2)Cc2cc(C(F)(F)F)ccc2O1` (stereo partly shown) [Example 53, (2s,4s)-2-((4-(2-methyl-5-(trifluoromethyl)-2,3-dihydro-1-benzofuran-2-yl)piperidin-1-yl)carbonyl)-7-oxa-5-azaspiro[3.4]octan-6-one], the inhibition at 10 µM was 101%.

Consider `CC(Oc1cc(F)c(F)cc1F)C1CCN(C(=O)[C@H]2C[C@]3(COC(=O)N3)C2)CC1` (stereo partly shown) [Example 54, (2s,4s)-2-((4-(1-(2,4,5-trifluorophenoxy)ethyl)piperidin-1-yl)carbonyl)-7-oxa-5-azaspiro[3.4]octan-6-one], for which the “% inhibition (10 μM)” value (10 µM) turned out to be 101%.

In the case of `CC(Oc1cc(F)c(F)cc1F)C1CCN(C(=O)[C@H]2C[C@]3(COC(=O)N3)C2)CC1` (stereo partly shown) [Example 55, (2s,4s)-2-((4-(1-(2,4,5-trifluorophenoxy)ethyl)piperidin-1-yl)carbonyl)-7-oxa-5-azaspiro[3.4]octan-6-one], the “% inhibition (10 μM)” value (10 µM) stood at 100%.

`CC(Oc1c(F)ccc(F)c1F)C1CCN(C(=O)[C@H]2C[C@]3(COC(=O)N3)C2)CC1` (stereo partly shown) [Example 56, (2s,4s)-2-((4-(1-(2,3,6-trifluorophenoxy)ethyl)piperidin-1-yl)carbonyl)-7-oxa-5-azaspiro[3.4]octan-6-one]: the “% inhibition (10 μM)” value (10 µM) is 100%.

With `CC(Oc1c(F)ccc(F)c1F)C1CCN(C(=O)[C@H]2C[C@]3(COC(=O)N3)C2)CC1` (stereo partly shown) [Example 57, (2s,4s)-2-((4-(1-(2,3,6-trifluorophenoxy)ethyl)piperidin-1-yl)carbonyl)-7-oxa-5-azaspiro[3.4]octan-6-one], the “% inhibition (10 μM)” value (10 µM) was 100%.

As for `O=C1N[C@]2(CO1)C[C@H](C(=O)N1CCC(C3(C(F)(F)F)Cc4cc(F)ccc4O3)CC1)C2` (stereo partly shown) [Example 58, (2s,4s)-2-((4-(5-fluoro-2-(trifluoromethyl)-2,3-dihydro-1-benzofuran-2-yl)piperidin-1-yl)carbonyl)-7-oxa-5-azaspiro[3.4]octan-6-one], the inhibition at 10 µM worked out at 100%.

With `CC(Oc1ccc(F)cc1C(F)(F)F)C1CCN(C(=O)[C@H]2C[C@]3(COC(=O)N3)C2)CC1` (stereo partly shown) [Example 59, (2s,4s)-2-((4-(1-(4-fluoro-2-(trifluoromethyl)phenoxy)ethyl)piperidin-1-yl)carbonyl)-7-oxa-5-azaspiro[3.4]octan-6-one], the inhibition at 10 µM was determined as 100%.
